Source: PubChem BioAssay (NCI)
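A five-concentration, 48-hour dose response in 96-well plates underlies each endpoint, interpolated linearly between surrounding concentrations. At the TGI there is no net growth.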

Key:
Assay in all cases: inhibition of tumour cell growth, NCI panel, 48 h
786-0 renal = test system: 786-0 renal
A498 renal = test system: A498 renal
A549 NSCLC = test system: A549 NSCLC
ACHN renal = test system: ACHN renal
BT-549 breast = test system: BT-549 breast
CAKI-1 renal = test system: CAKI-1 renal
CCRF-CEM leukemia = test system: CCRF-CEM leukemia
COLO 205 colon = test system: COLO 205 colon
DU-145 prostate = test system: DU-145 prostate
EKVX NSCLC = test system: EKVX NSCLC
HCT-116 colon = test system: HCT-116 colon
HCT-15 colon = test system: HCT-15 colon
HL-60(TB) leukemia = test system: HL-60(TB) leukemia
HOP-62 NSCLC = test system: HOP-62 NSCLC
HOP-92 NSCLC = test system: HOP-92 NSCLC
HS 578T breast = test system: HS 578T breast
HT29 colon = test system: HT29 colon
IGROV1 ovarian = test system: IGROV1 ovarian
K-562 leukemia = test system: K-562 leukemia
KM12 colon = test system: KM12 colon
LOX IMVI melanoma = test system: LOX IMVI melanoma
M14 melanoma = test system: M14 melanoma
MALME-3M melanoma = test system: MALME-3M melanoma
MDA-MB-231 breast = test system: MDA-MB-231 breast
MDA-MB-435 = test system: MDA-MB-435
MDA-N = test system: MDA-N
MOLT-4 leukemia = test system: MOLT-4 leukemia
NCI-H226 lung = test system: NCI-H226 lung
NCI-H23 lung = test system: NCI-H23 lung
NCI-H460 lung = test system: NCI-H460 lung
NCI-H522 lung = test system: NCI-H522 lung
NCI/ADR-RES ovarian = test system: NCI/ADR-RES ovarian
OVCAR-3 ovarian = test system: OVCAR-3 ovarian
OVCAR-5 ovarian = test system: OVCAR-5 ovarian
OVCAR-8 ovarian = test system: OVCAR-8 ovarian
PC-3 prostate = test system: PC-3 prostate
RPMI-8226 leukemia = test system: RPMI-8226 leukemia
RXF 393 renal = test system: RXF 393 renal
SF-268 CNS = test system: SF-268 CNS
SF-295 CNS = test system: SF-295 CNS
SF-539 CNS = test system: SF-539 CNS
SK-MEL-2 melanoma = test system: SK-MEL-2 melanoma
SK-MEL-28 melanoma = test system: SK-MEL-28 melanoma
SK-MEL-5 melanoma = test system: SK-MEL-5 melanoma
SK-OV-3 ovarian = test system: SK-OV-3 ovarian
SN12C renal = test system: SN12C renal
SNB-19 CNS = test system: SNB-19 CNS
SNB-75 CNS = test system: SNB-75 CNS
SW-620 colon = test system: SW-620 colon
T-47D breast = test system: T-47D breast
TK-10 renal = test system: TK-10 renal
U251 CNS = test system: U251 CNS
UACC-257 melanoma = test system: UACC-257 melanoma
UACC-62 melanoma = test system: UACC-62 melanoma
UO-31 renal = test system: UO-31 renal
HCC-2998 colon = test system: HCC-2998 colon
OVCAR-4 ovarian = test system: OVCAR-4 ovarian
SR leukemia = test system: SR leukemia

Q: How did the TGI (786-0 renal) turn out when `C=CCCON(C(=O)OC(C)(C)C)C(C)(C)C` was run?
A: The TGI was over 100 µM.

Q: And the TGI (A498 renal)?
A: Its TGI is over 100 µM.

Q: And the TGI (A549 NSCLC)?
A: The TGI was over 100 µM.

Q: And the TGI (ACHN renal)?
A: The TGI was over 100 µM.

Q: And the TGI (BT-549 breast)?
A: Its TGI is over 100 µM.

Q: What about the TGI (CAKI-1 renal) of the same molecule?
A: Its TGI is over 100 µM.

Q: What about the TGI (CCRF-CEM leukemia) of the same molecule?
A: Its TGI is over 100 µM.

Q: And the TGI (COLO 205 colon)?
A: Its TGI is over 100 µM.

Q: And the TGI (DU-145 prostate)?
A: Its TGI is over 100 µM.

Q: And the TGI (EKVX NSCLC)?
A: The TGI was over 100 µM.

Q: And the TGI (HCT-116 colon)?
A: The TGI was over 100 µM.

Q: What about the TGI (HCT-15 colon) of the same molecule?
A: The TGI was over 100 µM.

Q: And the TGI (HL-60(TB) leukemia)?
A: The TGI was over 100 µM.

Q: What about the TGI (HOP-62 NSCLC) of the same molecule?
A: The TGI was over 100 µM.

Q: And the TGI (HOP-92 NSCLC)?
A: The TGI was over 100 µM.

Q: What about the TGI (HS 578T breast) of the same molecule?
A: Its TGI is over 100 µM.

Q: What about the TGI (HT29 colon) of the same molecule?
A: Its TGI is over 100 µM.

Q: What about the TGI (IGROV1 ovarian) of the same molecule?
A: Its TGI is over 100 µM.

Q: And the TGI (K-562 leukemia)?
A: The TGI was over 100 µM.

Q: What about the TGI (KM12 colon) of the same molecule?
A: The TGI was over 100 µM.

Q: What about the TGI (LOX IMVI melanoma) of the same molecule?
A: The TGI was over 100 µM.

Q: And the TGI (M14 melanoma)?
A: Its TGI is over 100 µM.

Q: And the TGI (MALME-3M melanoma)?
A: Its TGI is over 100 µM.

Q: And the TGI (MDA-MB-231 breast)?
A: The TGI was over 100 µM.

Q: What about the TGI (MDA-MB-435) of the same molecule?
A: The TGI was over 100 µM.

Q: And the TGI (MDA-N)?
A: The TGI was over 100 µM.

Q: And the TGI (MOLT-4 leukemia)?
A: Its TGI is over 100 µM.

Q: What about the TGI (NCI-H226 lung) of the same molecule?
A: The TGI was over 100 µM.

Q: And the TGI (NCI-H23 lung)?
A: The TGI was over 100 µM.

Q: And the TGI (NCI-H460 lung)?
A: The TGI was over 100 µM.

Q: And the TGI (NCI-H522 lung)?
A: Its TGI is over 100 µM.

Q: And the TGI (NCI/ADR-RES ovarian)?
A: Its TGI is over 100 µM.

Q: And the TGI (OVCAR-3 ovarian)?
A: The TGI was over 100 µM.

Q: What about the TGI (OVCAR-5 ovarian) of the same molecule?
A: Its TGI is over 100 µM.

Q: And the TGI (OVCAR-8 ovarian)?
A: Its TGI is over 100 µM.

Q: And the TGI (PC-3 prostate)?
A: Its TGI is over 100 µM.

Q: What about the TGI (RPMI-8226 leukemia) of the same molecule?
A: The TGI was over 100 µM.

Q: And the TGI (RXF 393 renal)?
A: The TGI was over 100 µM.

Q: What about the TGI (SF-268 CNS) of the same molecule?
A: Its TGI is over 100 µM.

Q: And the TGI (SF-295 CNS)?
A: Its TGI is over 100 µM.

Q: What about the TGI (SF-539 CNS) of the same molecule?
A: Its TGI is over 100 µM.

Q: And the TGI (SK-MEL-2 melanoma)?
A: Its TGI is over 100 µM.

Q: And the TGI (SK-MEL-28 melanoma)?
A: Its TGI is over 100 µM.

Q: And the TGI (SK-MEL-5 melanoma)?
A: The TGI was over 100 µM.

Q: What about the TGI (SK-OV-3 ovarian) of the same molecule?
A: Its TGI is over 100 µM.

Q: And the TGI (SN12C renal)?
A: Its TGI is over 100 µM.

Q: And the TGI (SNB-19 CNS)?
A: Its TGI is over 100 µM.

Q: And the TGI (SNB-75 CNS)?
A: The TGI was over 100 µM.

Q: What about the TGI (SW-620 colon) of the same molecule?
A: The TGI was over 100 µM.

Q: And the TGI (T-47D breast)?
A: The TGI was over 100 µM.

Q: And the TGI (TK-10 renal)?
A: The TGI was over 100 µM.

Q: And the TGI (U251 CNS)?
A: The TGI was over 100 µM.

Q: And the TGI (UACC-257 melanoma)?
A: The TGI was over 100 µM.

Q: And the TGI (UACC-62 melanoma)?
A: Its TGI is over 100 µM.

Q: And the TGI (UO-31 renal)?
A: Its TGI is over 100 µM.

Q: Which results are given for `O=C(N/N=C(\c1ccccc1)c1ccccn1)NC1CCCCC1`?
A: TGI (786-0 renal): > 100 µM; TGI (A549 NSCLC): > 100 µM; TGI (ACHN renal): > 100 µM; TGI (BT-549 breast): > 100 µM; TGI (CAKI-1 renal): > 100 µM; TGI (CCRF-CEM leukemia): > 100 µM; TGI (COLO 205 colon): > 100 µM; TGI (DU-145 prostate): > 100 µM; TGI (EKVX NSCLC): > 100 µM; TGI (HCC-2998 colon): > 100 µM; TGI (HCT-116 colon): > 100 µM; TGI (HCT-15 colon): > 100 µM; TGI (HOP-62 NSCLC): > 100 µM; TGI (HOP-92 NSCLC): > 100 µM; TGI (HS 578T breast): > 100 µM; TGI (HT29 colon): > 100 µM; TGI (IGROV1 ovarian): > 100 µM; TGI (K-562 leukemia): > 100 µM; TGI (KM12 colon): > 100 µM; TGI (LOX IMVI melanoma): 51.7 µM; TGI (M14 melanoma): > 100 µM; TGI (MALME-3M melanoma): > 100 µM; TGI (MDA-MB-231 breast): > 100 µM; TGI (MDA-MB-435): > 100 µM; TGI (MDA-N): > 100 µM; TGI (MOLT-4 leukemia): > 100 µM; TGI (NCI-H226 lung): 83.2 µM; TGI (NCI-H23 lung): > 100 µM; TGI (NCI-H460 lung): > 100 µM; TGI (NCI-H522 lung): > 100 µM; TGI (OVCAR-3 ovarian): > 100 µM; TGI (OVCAR-4 ovarian): > 100 µM; TGI (OVCAR-5 ovarian): > 100 µM; TGI (PC-3 prostate): > 100 µM; TGI (RPMI-8226 leukemia): > 100 µM; TGI (SF-268 CNS): > 100 µM; TGI (SF-295 CNS): > 100 µM; TGI (SK-MEL-2 melanoma): > 100 µM; TGI (SK-MEL-28 melanoma): > 100 µM; TGI (SK-MEL-5 melanoma): > 100 µM; TGI (SK-OV-3 ovarian): > 100 µM; TGI (SN12C renal): > 100 µM; TGI (SNB-19 CNS): > 100 µM; TGI (SNB-75 CNS): > 100 µM; TGI (SR leukemia): > 100 µM; TGI (SW-620 colon): > 100 µM; TGI (T-47D breast): > 100 µM; TGI (TK-10 renal): > 100 µM; TGI (U251 CNS): > 100 µM; TGI (UACC-257 melanoma): > 100 µM; TGI (UACC-62 melanoma): > 100 µM; TGI (UO-31 renal): > 100 µM
